The nature of this data set: Single oral dose pharmacokinetic study in humans (healthy male volunteers), serum strontium by ICP-MS. As to conditions: by inverse regression on the dose-AUC model; 95% CI [1.073, 1.115].

The results in this text go back to patent US20080221213A1, “Tablets Comprising a High Load of Strontium” (OSTEOLOGIX A/S SYMBION SCIENCE PARK, priority 2005, published 2008).

In the case of `O=C([O-])CC(=O)[O-].[Sr+2]` [strontium malonate], the “Bioequivalent dose to 2.0 g strontium ranelate (Protelos) in terms of AUC5 week” value worked out at 1.09 g.
